Reference: US10640495B2, “Heterocycle derivatives having TrkA inhibitory activity” (Shionogi & Co., Ltd., priority 2015, dated 2020)
Read-outs that look alike come from different tables or passages of the source. Each block holds one compound with its values, some of them ahead of it.

Assays:
human TrkA = human TrkA (Homo sapiens (Human), UniProt P04629); test: Human TrkA inhibition assay (Test Example 2); assay type: biochemical
Procedure, shortened: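 Recombinant TrkA (1 nmol/L) was preincubated 15 min at room temperature with compound in HEPES/MgCl2/DTT buffer, then reacted with FL-peptide 27 (1.5 μmol/L) and ATP (500 μmol/L) for 120 min at 37 °C. After EDTA stop, substrate phosphorylation was read by microfluidic mobility shift. IC50 came from logistic regression over 3-fold dilution series.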

hERG channel (IKr) = hERG channel (IKr) (Homo sapiens (Human), UniProt Q12809); test: hERG test, whole cell patch clamp IKr in CHO cells (Test Example 3); assay type: cell-based; settings: pH 7.4, at of test compound (so in the source), CHO cells expressing hERG channel, read-out: % inhibition of tail peak current (IKr)
hERG channel (IKr), sequence (Q12809 whole entry): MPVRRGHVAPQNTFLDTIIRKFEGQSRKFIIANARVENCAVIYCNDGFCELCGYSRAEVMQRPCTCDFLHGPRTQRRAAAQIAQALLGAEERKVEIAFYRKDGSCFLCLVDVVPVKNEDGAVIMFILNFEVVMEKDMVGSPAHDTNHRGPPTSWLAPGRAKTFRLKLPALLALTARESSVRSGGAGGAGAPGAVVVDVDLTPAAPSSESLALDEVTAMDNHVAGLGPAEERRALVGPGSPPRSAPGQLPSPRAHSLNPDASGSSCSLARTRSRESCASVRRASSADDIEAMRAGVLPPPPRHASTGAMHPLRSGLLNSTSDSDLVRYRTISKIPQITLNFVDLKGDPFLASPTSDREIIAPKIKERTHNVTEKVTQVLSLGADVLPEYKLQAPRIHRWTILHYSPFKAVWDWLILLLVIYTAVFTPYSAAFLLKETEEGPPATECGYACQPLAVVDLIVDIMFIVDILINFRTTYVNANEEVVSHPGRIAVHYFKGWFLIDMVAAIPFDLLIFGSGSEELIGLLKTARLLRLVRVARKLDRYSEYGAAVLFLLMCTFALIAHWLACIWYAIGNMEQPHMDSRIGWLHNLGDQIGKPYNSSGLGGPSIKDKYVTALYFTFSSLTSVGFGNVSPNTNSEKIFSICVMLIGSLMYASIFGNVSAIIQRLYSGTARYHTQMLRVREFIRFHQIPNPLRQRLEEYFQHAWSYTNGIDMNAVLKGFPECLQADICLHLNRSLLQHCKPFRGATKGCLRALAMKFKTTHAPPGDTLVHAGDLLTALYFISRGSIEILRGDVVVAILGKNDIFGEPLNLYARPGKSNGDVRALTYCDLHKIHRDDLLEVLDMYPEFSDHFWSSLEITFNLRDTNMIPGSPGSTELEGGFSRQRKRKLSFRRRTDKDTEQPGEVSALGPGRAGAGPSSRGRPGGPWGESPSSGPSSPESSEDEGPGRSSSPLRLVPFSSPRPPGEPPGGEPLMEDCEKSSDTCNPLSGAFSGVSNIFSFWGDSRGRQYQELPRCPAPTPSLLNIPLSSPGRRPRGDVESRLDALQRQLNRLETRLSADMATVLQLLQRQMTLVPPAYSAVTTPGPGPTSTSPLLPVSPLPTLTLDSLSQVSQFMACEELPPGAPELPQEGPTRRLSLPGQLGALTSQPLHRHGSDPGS
Text: For the purpose of assessing risk of an electrocardiogram QT interval prolongation of the compound of the present invention, effects of the compound of the present invention on delayed rectifier K^+ current (IKr), which plays an important role in the ventricular repolarization process, was studied using CHO cells expressing human ether-a-go-go related gene (hERG) channel.
After a cell was retained at a membrane potential of −80 mV by whole cell patch clamp method using an automated patch clamp system (QPatch; Sophion Bioscience A/S) and gave a leak potential of −50 mV, IKr induced by depolarization pulse stimulation at +20 mV for 2 seconds, and further, repolarization pulse stimulation at −50 mV for 2 seconds, was recorded. A vehicle, which is the 0.1-0.3% dimethyle sulfoxide solution in extracellular solution (NaCl: 145 mmol/L, KCl: 4 mmol/L, CaCl2: 2 mmol/L, MgCl2: 1 mmol/L, glucose: 10 mmol/L, HEPES (4-(2-hydroxyethyl)-1-piperazineethanesulfonic acid): 10 mmol/L, pH7.4), or the compound of the present invention had been dissolved at an objective concentration in the extracellular solution is applied to the cell at room temperature for 7 minutes or more. From the recording IKr, an absolute value of the tail peak current was measured based on the current value at the resting membrane potential using analysis software (QPatch assay software; Sophion Bioscience A/S). Further, the % inhibition of tail peak current for the compound of the present invention relative to the tail peak current after application of the vehicle is calculated to assess influence of the compound of the present invention on IKr.
(Result) % inhibition was shown at […] of test compound.

[1] = Clearance test, intravenous administration in SD rats (Test Example 7); assay type: in vivo; settings: rat, plasma, intravenous administration 0.5 mg/kg or 1 μmol/kg, read-out: Total Clearance (CLtot)
Method: Materials and Methods for Experiments • (1) Experimental animals: SD rats were used. • (2) Rearing condition: SD rats were allowed free access to solid feed and sterilized tap water. • (3) Setting of dosage and grouping: Intravenous administration was performed with the predetermined dosage. Grouping was set as below. (Dosage is changed per compound) Intravenous administration 0.5 mg/kg or 1 μmol/kg (n=2) • (4) Preparation of administration solutions: Administration was performed after solubilization by using dimethylacetamide/propylene glycol=1/1 or dimethyl sulfoxide/propylene glycol=1/1 as the solvent. • (5) Routes of administration: Intravenous administration was performed from caudal vein by syringes with needle. • (6) Evaluation items: Blood was collected serially and concentration of a compound of the present invention in plasma was measured by LC/MS/MS. • (7) Statistical analysis: About transition of concentration of a compound of the present invention in plasma, Total Clearance (CLtot) of a compound of the present invention was calculated by non-linear least-squares method program, WinNonlin (a registered trademark).

[2] = Table 152, human TrkA inhibition, read-out: IC50_nM
[3] = human TrkA 1 nmol/L, ATP 500 μmol/L, 120 min at 37° C., read-out: IC50 values (TrkA phosphorylation inhibition)
[4] = Table 153, human TrkA inhibition, read-out: IC50
[5] = Table 155, human TrkA inhibition, read-out: IC50
[6] = Table 157, human TrkA inhibition, read-out: IC50

human TrkA, sequence (P04629 440-796): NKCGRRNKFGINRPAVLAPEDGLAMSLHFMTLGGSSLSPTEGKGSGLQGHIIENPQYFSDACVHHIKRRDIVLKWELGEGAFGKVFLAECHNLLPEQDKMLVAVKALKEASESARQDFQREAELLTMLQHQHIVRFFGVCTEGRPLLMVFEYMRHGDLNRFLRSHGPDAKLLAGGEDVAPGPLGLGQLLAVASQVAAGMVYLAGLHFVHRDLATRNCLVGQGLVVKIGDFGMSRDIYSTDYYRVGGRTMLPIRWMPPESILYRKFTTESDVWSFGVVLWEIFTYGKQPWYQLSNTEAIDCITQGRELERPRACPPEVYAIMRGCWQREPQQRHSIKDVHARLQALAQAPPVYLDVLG

SMILES: COCCN1C[C@@H](NC(=O)Nc2c(C)c(-c3cnn(C)c3)nn2-c2ccccc2)[C@H](c2ccccc2)O1 (racemic) [Compound I-4]
IC50 (human TrkA; [2]): < 0.1 µM | inhibition at 5 mol/L (hERG channel (IKr)): 14.1%

SMILES: COCCN1C[C@@H](NC(=O)Nc2c(C)c(-c3cnc4c(cnn4C)c3)nn2-c2ccccc2)[C@H](c2ccnc(F)c2)O1 (racemic) [Compound I-40]
IC50 (human TrkA; [3]): 0.0016 µM | clearance [1]: 2.82 mL/min/kg

SMILES: COCCN1C[C@@H](NC(=O)Nc2c(C)c(-c3cnc4c(cnn4C)c3)nn2-c2ccccc2)[C@H](c2cnc(F)c(F)c2)O1 (racemic) [Compound I-67]
IC50 (human TrkA; [4]): < 0.1 µM

SMILES: COCCN1C[C@@H](NC(=O)Nc2c(C)c(-c3cccc(N(C)C)c3)nn2-c2ccccc2)[C@H](c2ccc(F)c(F)c2)O1 [Compound I-450]
IC50 (human TrkA; [5]): < 0.1 µM

SMILES: COCCN1C[C@@H](NC(=O)Nc2c(C)c(-c3cnc(OC)c(C(=O)N[C@@H]4CCOC4)c3)nn2-c2ccccc2)[C@H](c2ccnc(F)c2)O1 [Compound I-113]
IC50 (human TrkA; [4]): < 0.1 µM

SMILES: COCCN1C[C@H](NC(=O)Nc2c(C)c(-c3cnc(OC)nc3)nn2-c2ccccc2)[C@@H](c2cnc(F)c(F)c2)O1 [Compound I-263]
IC50 (human TrkA; Table 154, human TrkA inhibition, read-out: IC50): 0.1 to 1 µM

SMILES: COCCN1C[C@@H](NC(=O)Nc2c(C)c(-c3cnc(C4CC4)nc3)nn2-c2ccccc2)[C@H](c2ccnc(F)c2)O1 (racemic) [Compound I-115]
IC50 (human TrkA; [4]): < 0.1 µM

SMILES: CCN1C[C@@H](NC(=O)Nc2c(C)c(OCC3CCN(C)CC3)nn2-c2ccccc2)[C@H](c2ccc(F)cc2)O1 (racemic) [Compound I-569]
IC50 (human TrkA; Table 156, human TrkA inhibition, read-out: IC50): < 0.1 µM

SMILES: COCCN1C[C@@H](NC(=O)Nc2c(C)c(-c3cnc(OC)nc3)nn2-c2ccccc2)[C@H](c2cnc(F)c(F)c2)O1 [Compound I-211]
IC50 (human TrkA; [3]): 0.0015 µM

Further lines, with some results ahead:

IC50 (human TrkA; [2]): < 0.1 µM | clearance [1]: 13.6 mL/min/kg
SMILES: COCCC1C[C@@H](NC(=O)Nc2c(C)c(-c3cnc(C)nc3)nn2-c2ccccc2)[C@H](c2ccccc2)O1 (some centres unmarked) [Compound I-12]
inhibition at 5 mol/L (hERG channel (IKr)): 17.6%

IC50 (human TrkA; [2]): < 0.1 µM | clearance [1]: 15.6 mL/min/kg
SMILES: CCN1CCC(NC(=O)c2ccc(-c3nn(-c4ccccc4)c(NC(=O)N[C@@H]4CC(CCOC)O[C@H]4c4ccccc4)c3C)cc2)CC1 (some centres unmarked) [Compound I-19]

IC50 (human TrkA; [3]): 0.003 µM | clearance [1]: 3.73 mL/min/kg
SMILES: COCC[C@@H]1C[C@@H](NC(=O)Nc2c(C)c(-c3cnc4c(c3)nnn4C)nn2-c2ccccc2)[C@H](c2ccnc(F)c2)O1 [Compound I-275]

IC50 (human TrkA; [2]): < 0.1 µM
SMILES: COCCC1C[C@@H](NC(=O)Nc2c(C)c(-c3cnn(C)c3)nn2-c2ccccc2)[C@H](c2ccccc2)O1 (some centres unmarked) [Compound I-6]
inhibition at 5 mol/L (hERG channel (IKr)): 8.9%

IC50 (human TrkA; [3]): 0.0022 µM | clearance [1]: 7.93 mL/min/kg
SMILES: COCCN1C[C@@H](NC(=O)Nc2c(C)c(-c3cnc(OC)nc3)nn2-c2ccccc2)[C@H](c2cnc(F)c(F)c2)O1 (racemic) [Compound I-57]

IC50 (human TrkA; [3]): 0.0061 µM
SMILES: COCC[C@@H]1O[C@@H](NC(=O)Nc2c(C)c(-c3cnn(C)c3)nn2-c2ccccc2)[C@H](c2ccccc2)O1 [Compound I-7]
inhibition at 5 mol/L (hERG channel (IKr)): 4.2%

IC50 (human TrkA; [4]): < 0.1 µM | clearance [1]: 6.35 mL/min/kg
SMILES: COCCN1C[C@@H](NC(=O)Nc2c(C)c(-c3cnc4c(c3)nnn4C)nn2-c2ccccc2)[C@H](c2ccnc(F)c2)O1 (racemic) [Compound I-90]

IC50 (human TrkA; [5]): < 0.1 µM
SMILES: COCCN1C[C@@H](NC(=O)Nc2c(C)c(N3CC(c4ccc(F)cc4)C3)nn2-c2ccccc2)[C@H](c2ccnc(F)c2)O1 (racemic) [Compound I-335]

IC50 (human TrkA; [6]): < 0.1 µM
SMILES: COCCN1C[C@@H](NC(=O)Nc2c(C)c(OC3CCNCC3)nn2-c2ccccc2)[C@H](c2ccc(F)c(F)c2)O1 [Compound I-602]

IC50 (human TrkA; [6]): < 0.1 µM
SMILES: COCCN1C[C@@H](NC(=O)Nc2c(C)c(-c3cnc(N4CC(N(C)C)C4)nc3)nn2-c2ccccc2)[C@H](c2ccnc(F)c2)O1 (racemic) [Compound I-582]

IC50 (human TrkA; [3]): 0.0014 µM
SMILES: COCCN1C[C@@H](NC(=O)Nc2c(C)c(-c3ccc(CN(C)C)nc3)nn2-c2ccccc2)[C@H](c2ccc(F)c(F)c2)O1 [Compound I-638]

IC50 (human TrkA; [5]): > 1 µM
SMILES: COCCN1C[C@H](NC(=O)Nc2c(C)c(-c3cnc(C)nc3)nn2-c2ccccc2)[C@@H](c2cc(F)nc(F)c2)O1 [Compound I-362]

IC50 (human TrkA; [5]): < 0.1 µM
SMILES: COCCN1C[C@@H](NC(=O)Nc2c(C)c(-c3ccc(OC)nc3)nn2-c2ccccc2)[C@H](c2ccnc(F)c2)O1 (racemic) [Compound I-323]
